Patent publication US5536723A, “S-nitroso derivatives of hydrazinoacetic acids, 1-[(acylthio and (mercapto)-1-oxoalkyl]-1,2,34-Tetrahydroquinoline-2-carboxylic acids and alanyl prolines and isoquinolines” (Brigham & Women's Hospital, priority 1994, dated 1996)
“Also recorded” adds a separate entry of the source. Where two headings read alike, the source gives them in different places.

Key:
[1] = spontaneous hydrolysis (half-life of the S-nitroso bond) in physiologic buffer (PSS); format: physicochemical; conditions: 37° C.
Method: FIG. 1 depicts a graph showing the spontaneous hydrolysis of S-nitrosocaptopril in PBS. Each point represents the mean ±SEM of four experiments performed in duplicate.
(§1) The half-life of the S-nitroso bond of S-nitrosocaptopril in physiologic buffer and in plasma was determined by incubating purified S-nitrosocaptopril in aerated PSS or in PPP, the results of which are shown in FIG. 1.

[2] = decay of the S-nitroso bond in plasma (PPP); format: in vitro ADME; conditions: room temperature
Method: as §1

[3] = tested on: bovine femoral artery; assay: relaxation of isolated bovine femoral artery rings contracted with norepinephrine; conditions: for IC50: Bos taurus
Method: FIG. 2 depicts a graph showing the effect of S-nitrosocaptopril on the contraction of bovine femoral arteries to norepinephrine.
(§2) Blood Vessel Preparation. Bovine coronary or femoral arteries were obtained from an abattoir immediately after sacrifice of two- to four-week-old calves. Immediately after removal, the vessel was placed in ice-cold physiologic salt solution (PSS) containing 118.3 mM NaCl, 4.7 mM KCl, 2.5 mM CaCl2, 1.2 mM MgSO4, 1.2 mM KH2 PO4, 25.0 mM NaHCO3, 11.1 mM glucose, and 0.026 mM calcium disodium (ethylenedinitrilo)-tetraacetate. The vessels were then cleaned of adventitial tissue and cut into rings of approximately 5 mm lengths. When called for by the protocol, endothelium was removed from a ring by gently rubbing the luminal surface with a watchmaker's forceps. Vascular rings with intact endothelium were then suspended in organ chambers containing 25 ml of PSS at 37° aerated with 95% O2 -5% CO2. The rings were connected to force transducers (Grass FT03C, Quincy, Mass.) and changes in isometric force recorded continuously (Grass Polygraph Model 79B) over a period of 90 minutes. The optimal length-tension relationship was determined for each ring by observing the response to 10^-6 M norepinephrine after increments in tension of 0.5 gm. The functional integrity of the endothelium was assessed by contracting the vessel with 10^-6 M norepinephrine and then observing the response to 3×10^-7 M acetylcholine chloride.
Vascular ring segments with intact endothelium were […] contracted with a concentration of norepinephrine inducing a half-maximal response. After a stable contraction had been achieved, the tissue was exposed to increasing concentrations of S-nitrosocaptopril in cumulative half-log increments. […] The apparent IC50 is approximately 1 μM.

[4] = tested on: bovine coronary artery; assay: relaxation of isolated bovine coronary artery rings contracted with potassium chloride
Description: FIG. 5 depicts a graph showing the relaxation to sodium nitroprusside in the bovine coronary artery in the presence (o; n=7) or absence (; n:12) of a subthreshhold dose of S-nitrosocaptopril. The data are expressed as a percentage of the initial tension generated by potassium chloride (4×10^-2 M; coronary arteries) and are shown as mean ±SEM in each group.
as §2
Thus, to study vasodilating agents in this tissue the vessels were first contracted with potassium chloride (40 mM). Relaxations are expressed as a percent of the concentration to 40 mM potassium chloride.
Relaxations to S-nitrosocaptopril were inhibited by the antagonist of soluble guanylate cyclase, methylene blue (FIG. 4). Sodium nitroprusside induced dose-dependent relaxations of contractions to potassium chloride. The relaxation to sodium nitroprusside was inhibited by subthreshold doses of S-nitrosocaptopril (FIG. 5).

[5] = tested on: platelets; assay: platelet aggregation in PRP induced by ADP; format: cell-based, human; conditions: Homo sapiens, Platelet, 11 μM ADP
Method: FIG. 7 depicts a graph showing the effect of S-nitrosocaptopril on platelet aggregation. Platelets in PRP were incubated with S-nitrosocaptopril over a range of concentrations for three minutes, after which ADP was added to a final concentration of 11 uM. The maximal rate of aggregation was measured and plotted as a percentage of that observed in the absence of S-nitrosocaptopril. Each point represents the mean ±SEM of five experiments each performed in duplicate.
Platelets. Volunteers who had not ingested acetylsalicylic acid for at least ten days provided venous blood within one hour of use. […] Platelet counts were determined using a Coulter counter (Model ZM; Coulter Electronics, Hialeah, Fla.) and adjusted with platelet-poor plasma (PPP) to 1.5×10^8 platelets/ml prior to use.
Platelet Aggregation. Platelet aggregation was monitored using a standard nephelometric technique (Born and Cross, J. Physiol (London) 168:178-195 (1963)) in which PRP was incubated at 37° with a final concentration of 11 μM ADP and stirred at 900 rpm in a Payton dual channel aggregometer (Payton Associates, Inc., Buffalo, N.Y.). Aggregation was quantitated by measuring either the maximal rate of change of light transmittance or the extent of change of light transmittance. […]

[6] = arterial pressure in the anesthetized rabbit; format: in vivo; conditions: 1 mM solution infused in an ear vein, 0.02 to 2.2 ml/min
Method: A 1 mM solution of S-nitrosocaptopril was infused in an ear vein of the rabbit at rates from 0.02 to 2.2 ml/min and the phasic and mean arterial pressure recorded in the femoral artery.

[7] = tested on: cGMP (and cAMP) in vascular rings; assay: cGMP (and cAMP) levels in vessel ring segments; format: cell-based; conditions: 10^-5 M, one minute
Method: (§3) Since the postulated mechanism by which the nitrosothiol moiety of S-nitrosocaptopril directly relaxes vascular smooth muscle and attenuates the platelet aggregation response is believed to be through activation of soluble guanylate cyclase, cGMP (and cAMP) levels were measured in vessel ring segments and in platelets incubated with 10^-5 M S-nitrosocaptopril.

[8] = tested on: cGMP (and cAMP) in platelets; assay: cGMP (and cAMP) levels in platelets; format: cell-based; conditions: 10^-5 M, one minute
Method: as §3

[9] = tested on: bovine femoral artery, contraction to angiotensin II; assay: contraction of the bovine femoral artery to angiotensin II
Method: The data are expressed as a percentage of the maximal response to norepinephrine (10^-4 M) and are shown as mean ±SEM in each group (n=6).
as §2

[10] = tested on: bovine femoral artery, response to bradykinin; assay: response of the bovine femoral artery to bradykinin; conditions: 10^-6 M
Method: as §2
In the bovine femoral artery contracted with a concentration of norepinephrine inducing a half-maximal response, bradykinin induced a biphasic response.

In the case of `C[C@H](CSN=O)C(=O)N1CCC[C@H]1C(=O)O` [S-nitrosocaptopril], the “estimated half-life of the S-nitroso bond (thiol-bound, mercurous-displaceable nitrite)” value [1] is reported as “approximately 2.8 hours”, the “estimated half-life of the S-nitroso bond” value [2] is reported as ~2.5 h and the IC50 ([3]; compared with coronary artery, p<0.05, n=6, read-out: IC50 (relaxation, femoral artery)) is reported as 5.6 µM. The IC50 ([3]; norepinephrine-contracted, intact endothelium, FIG. 2, read-out: apparent IC50 (relaxation)) was ~1 µM, the “potency of vasodilation relative to S-nitroso-N-acetylpenicillamine (literature value in the bovine coronary artery)” value ([3]; compared with Ignarro et al.) was “approximately one order of magnitude weaker” and the “relaxation response (in words)” value ([3]; norepinephrine-contracted, FIG. 2) was “induced dose-dependant relaxation; also recorded: progressive relaxation was observed”. The IC50 ([4]; Bos taurus, contracted with potassium chloride (40 mM)) was 1.9 µM, the Emax ([4]; Bos taurus, contracted with potassium chloride (40 mM), read-out: maximal relaxation, coronary artery) was 97 ± 7% and the “maximum inhibitory effect / relaxation, coronary artery compared with femoral artery (in words)” value ([4]; FIG. 3) was “significantly greater than those in the femoral artery (p<0.05); also recorded: significantly greater in the coronary artery than in the femoral artery”. The “effect on relaxation to sodium nitroprusside (in words)” value ([4]; subthreshold doses of S-nitrosocaptopril, FIG. 5) was “inhibited”, the IC50 [5] was ~80 µM and the “effect on blood pressure (in words)” value [6] was “clear decrease in blood pressure”. For the same compound, the “cAMP levels, vessel rings (in words)” value [7] was “did not change from basal levels”, the “cGMP level, vascular rings” value [7] was 0.0375 pmol/mg tissue and the fold induction at 10 µM ([7]; Bos taurus, 1 min, read-out: increase of cGMP levels, vascular rings) was 36.5. For the same compound, the “cAMP levels, platelets (in words)” value [8] was “did not change from basal levels”, the “cGMP level, platelets” value [8] was 5.44 pmoles/10^8 platelets and the fold induction at 10 µM ([8]; Platelet, 1 min, read-out: increase of cGMP levels, platelets) was 11.3. The “shift rightward in the dose response curve to angiotensin II” value [9] was 5 fold, the “responses to angiotensin II in the presence of S-nitrosocaptopril (in words)” value ([9]; 10^-6 M, FIG. 10) was “significantly less than control” and the “effect on the response to bradykinin (in words)” value [10] was “Neither response to bradykinin was affected”.
